In one test the target is T1, PKC epsilon (Homo sapiens, UniProt Q02156).
T1 construct: purchased Invitrogen P2282
T1 sequence (Q02156 1-737): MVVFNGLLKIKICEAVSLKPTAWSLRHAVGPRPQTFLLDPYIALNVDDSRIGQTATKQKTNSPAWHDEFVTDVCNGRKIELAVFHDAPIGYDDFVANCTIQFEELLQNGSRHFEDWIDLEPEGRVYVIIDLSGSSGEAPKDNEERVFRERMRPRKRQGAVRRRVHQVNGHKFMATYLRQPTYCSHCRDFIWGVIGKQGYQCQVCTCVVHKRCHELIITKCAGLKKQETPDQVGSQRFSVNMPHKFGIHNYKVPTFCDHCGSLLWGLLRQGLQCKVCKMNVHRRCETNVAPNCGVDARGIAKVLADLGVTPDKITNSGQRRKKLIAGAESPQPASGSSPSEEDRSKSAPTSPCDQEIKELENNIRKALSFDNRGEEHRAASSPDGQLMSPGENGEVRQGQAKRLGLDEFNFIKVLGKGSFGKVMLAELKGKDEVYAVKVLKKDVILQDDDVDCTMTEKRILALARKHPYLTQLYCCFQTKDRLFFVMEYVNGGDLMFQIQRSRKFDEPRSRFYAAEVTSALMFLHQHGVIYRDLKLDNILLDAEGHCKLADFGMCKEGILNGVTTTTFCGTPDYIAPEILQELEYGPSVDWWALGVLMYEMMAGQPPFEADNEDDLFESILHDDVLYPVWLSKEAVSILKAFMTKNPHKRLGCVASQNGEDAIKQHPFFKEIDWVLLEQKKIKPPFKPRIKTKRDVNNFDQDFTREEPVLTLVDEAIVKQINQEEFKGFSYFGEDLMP
The experiment in a line: Biochemical assay for PKC epsilon (fluorescence polarization, Protein Kinase C Assay Kit, Red). Particulars: read-out: IC50 μM PKCε. In outline:
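Read-out was fluorescence-polarization competition between phosphorylated substrate and a rhodamine PKC tracer for an anti-phosphoserine antibody, added with EDTA stop after an 80 min room-temperature kinase reaction with ATP and protein substrate (Mg2+/Ca2+ buffer). Enzyme (10 ng/ml final) was preincubated with compound for 30 min.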

Another test deals with T2, human ROCKα/ROCKII mix (Homo sapiens, UniProt O75116).
T2 construct: purchased Upstate Biotechnology 14-451
T2 sequence (O75116 11-552 limits assumed): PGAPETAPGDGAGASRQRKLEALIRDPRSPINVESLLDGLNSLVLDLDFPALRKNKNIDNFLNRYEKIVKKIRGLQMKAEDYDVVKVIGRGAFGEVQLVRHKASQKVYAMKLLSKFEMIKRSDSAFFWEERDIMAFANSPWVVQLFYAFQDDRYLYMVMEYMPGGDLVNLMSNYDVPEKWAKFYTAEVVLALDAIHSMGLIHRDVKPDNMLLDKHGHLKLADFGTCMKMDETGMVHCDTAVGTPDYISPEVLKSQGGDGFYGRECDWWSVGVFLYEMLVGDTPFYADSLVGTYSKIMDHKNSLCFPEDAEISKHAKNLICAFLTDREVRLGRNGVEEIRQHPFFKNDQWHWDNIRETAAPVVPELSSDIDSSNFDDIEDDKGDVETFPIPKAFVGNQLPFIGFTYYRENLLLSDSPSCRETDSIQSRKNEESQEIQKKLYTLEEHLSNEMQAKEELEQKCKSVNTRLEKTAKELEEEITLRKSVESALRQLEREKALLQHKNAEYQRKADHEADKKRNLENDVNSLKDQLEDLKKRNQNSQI
The test is described as follows: Biochemical assay for ROCK (fluorescence polarization, ROCK IMAP Kit).

Setting [1] is: compounds of Formula XIV, Table 3.
Where [2] appears, read: Table 2, compounds of Formula XIII.

Structures can show the parent of a compound that is named as a salt. Where two headings read alike, the source gives them in different places.

On to `COc1cccc(CNC(=O)CC(N)c2ccc(C(=O)Nc3ccncc3)cc2)c1OC` (stereo not shown) [Compound 238, 4-[1-Amino-2-(2,3-dimethoxy-benzylcarbamoyl)-ethyl]-N-pyridin-4-yl-benzamide], for which the half-inhibitory concentration (IC50) at PKC epsilon (setting [1]) lay in the range of 5 to 50 µM; on human ROCKα/ROCKII mix (setting [1]), 0.05 to 0.5 µM.

On to `CC(NC(=O)CC(N)c1ccc(C(=O)Nc2ccncc2)cc1)c1cccc2ccccc12` (stereo not shown) [Compound 229, 4-{1-Amino-2-(1-naphtalen-1-yl-ethylcarbamoyl)-ethyl]-N-pyridin-4-yl-benzamide], for which the IC50 at PKC epsilon (setting [1]) was in the range of 0.5 to 5 µM; at human ROCKα/ROCKII mix (setting [1]), 0.05 to 0.5 µM.

`NC(CNC(=O)C1CCCC1)c1ccc(C(=O)Nc2ccncc2)cc1` (stereo not shown) [Compound 42, 4-[1-Amino-2-(cyclopentanecarbonyl-amino)-ethyl]-N-pyridin-4-yl-benzamide]: the IC50 on PKC epsilon (setting [2]) and at human ROCKα/ROCKII mix (setting [2]) was 0.5 to 5 µM in each case.

Take `COc1ccc(CC(=O)N(C)CC(N)c2ccc(C(=O)Nc3ccncc3)cc2)c(OC)c1` (stereo not shown) [Compound 430, 4-(1-Amino-2-{[2-(2,4-dimethoxy-phenyl)-acetyl]-methyl-amino}-ethyl)-N-pyridin-4-yl-benzamide]: the half-inhibitory concentration (IC50) on PKC epsilon was 5 to 50 µM; on human ROCKα/ROCKII mix it was 0.05 to 0.5 µM.

Take `N[C@H](CC(=O)N[C@H]1CCCc2ccccc21)c1ccc(C(=O)Nc2ccncc2)cc1` [Compound 372, 4-{(R)-1-Amino-2-[(S)-(1,2,3,4-tetrahydro-naphthalen-1-yl)carbamoyl]-ethyl}-N-pyridin-4-yl-benzamide dihydrochloric acid salt]: the IC50 was 0.5 to 5 µM on PKC epsilon and 0.05 to 0.5 µM against human ROCKα/ROCKII mix.

As for `NC(CNC(=O)c1ccc2c(c1)OCO2)c1ccc(C(=O)Nc2ccncc2)cc1` (stereo not shown) [Compound 80, Benzo[1,3]dioxole-5-carboxylic acid {2-amino-2-[4-(pyridin-4-ylcarbamoyl)-phenyl]-ethyl}amide], the IC50 lay within 5 to 50 µM at PKC epsilon (setting [2]) and 0.05 to 0.5 µM against human ROCKα/ROCKII mix (setting [2]).

Regarding `NC(CNC(=O)Nc1ccc2ccccc2c1)c1ccc(C(=O)Nc2ccncc2)cc1` (stereo not shown) [Compound 23, 4-[1-amino-2-(3-naphtalen-2-yl-ureido)-ethyl]-N-pyridin-4-yl-benzamide], the IC50 is 0.5 to 5 µM at PKC epsilon and 0.05 to 0.5 µM against human ROCKα/ROCKII mix.

`NC(CC(=O)NCCc1cccc(F)c1)c1ccc(C(=O)Nc2ccncc2)cc1` (stereo not shown) [Compound 306]: the IC50 on PKC epsilon (setting [1]) lay in the range of 5 to 50 µM; against human ROCKα/ROCKII mix (setting [1]), 0.5 to 5 µM.

Take “4-{1-Amino-2-[(furan-2- ylmethyl)-carbamoyl]-ethyl}- N-pyridin-4-yl-benzamide [Compound 278]”: the IC50 at PKC epsilon (setting [1]) lay in the range of 0.5 to 5 µM; at human ROCKα/ROCKII mix (setting [1]) it was 0.05 to 0.5 µM.

`Cc1cccc(CC(=O)N(C)CC(N)c2ccc(C(=O)Nc3ccncc3)cc2)c1` (stereo not shown) [Compound 423, 4-{1-Amino-2-[methyl-(2-m-tolyl-acetyl)-amino]-ethyl}-N-pyridin-4-yl-benzamide]: the figures for the concentration for half-maximal inhibition (IC50) at PKC epsilon and against human ROCKα/ROCKII mix were 5 to 50 µM and 0.5 to 5 µM, respectively.

As to `CC(NC(=O)CC(N)c1ccc(C(=O)Nc2ccncc2)cc1)c1cccc2ccccc12` (stereo not shown) [Compound 230, 4-[1-Amino-2-(1-naphtalen-1-yl-ethylcarbamoyl)-ethyl]-N-pyridin-4-yl-benzamide], the IC50 on PKC epsilon (setting [1]) fell in the range of 0.5 to 5 µM; against human ROCKα/ROCKII mix (setting [1]) it was 0.05 to 0.5 µM.

As for `NC(CC(=O)Nc1ccc2cc[nH]c2c1)c1ccc(C(=O)Nc2ccncc2)cc1` (stereo not shown) [Compound 322, 4-[1-Amino-2-(1H-indol-6-ylcarbamoyl)-ethyl]-N-pyridin-4-yl-benzamide], the IC50 on PKC epsilon (setting [1]) and against human ROCKα/ROCKII mix (setting [1]) was 0.05 to 0.5 µM each time.

For the compound `N[C@@H](CNC(=O)C1(c2ccc(F)cc2)CCCC1)c1ccc(C(=O)Nc2ccncc2)cc1` [Compound 418, 4-((R)-1-Amino-2-{[1-(4-fluoro-phenyl)-cyclopentanecarbonyl]-amino}-ethyl)-N-pyridin-4-yl-benzamide dihydrochloric acid salt], the IC50 lay in the range of 0.05 to 0.5 µM at PKC epsilon and 0.5 to 5 µM at human ROCKα/ROCKII mix.

For the compound `NC(CNC(=O)[C@@H]1CCC(=O)N1)c1ccc(C(=O)Nc2ccncc2)cc1` (stereo partly drawn) [Compound 67, 5-Oxo-pyrrolidine-2-(S)-carboxylic acid {2-amino-2-[4-(pyridin-4-ylcarbamoyl)-phenyl]-ethyl}-amide], the 50% inhibitory concentration (IC50) at PKC epsilon (setting [2]) was in the range of 5 to 50 µM; against human ROCKα/ROCKII mix (setting [2]), 0.5 to 5 µM.

By IC50 is commonly meant the concentration at which inhibition is half-maximal.
